From publication PMC5923384, “Transporter gene acquisition and innovation in the evolution of Microsporidia intracellular parasites” (Nature Communications, 2018) come the findings set out here.

Assay [1] concerns the target T1, RaNTT1 (Rozella allomycis, UniProt A0A075B2H2).
T1 construct: gene O9G_001541; PCR-amplified gene, N-terminal His10 tag, pET16b, in E. coli Rosetta2 DE3 pLysS cells
T1 sequence (A0A075B2H2 1-597): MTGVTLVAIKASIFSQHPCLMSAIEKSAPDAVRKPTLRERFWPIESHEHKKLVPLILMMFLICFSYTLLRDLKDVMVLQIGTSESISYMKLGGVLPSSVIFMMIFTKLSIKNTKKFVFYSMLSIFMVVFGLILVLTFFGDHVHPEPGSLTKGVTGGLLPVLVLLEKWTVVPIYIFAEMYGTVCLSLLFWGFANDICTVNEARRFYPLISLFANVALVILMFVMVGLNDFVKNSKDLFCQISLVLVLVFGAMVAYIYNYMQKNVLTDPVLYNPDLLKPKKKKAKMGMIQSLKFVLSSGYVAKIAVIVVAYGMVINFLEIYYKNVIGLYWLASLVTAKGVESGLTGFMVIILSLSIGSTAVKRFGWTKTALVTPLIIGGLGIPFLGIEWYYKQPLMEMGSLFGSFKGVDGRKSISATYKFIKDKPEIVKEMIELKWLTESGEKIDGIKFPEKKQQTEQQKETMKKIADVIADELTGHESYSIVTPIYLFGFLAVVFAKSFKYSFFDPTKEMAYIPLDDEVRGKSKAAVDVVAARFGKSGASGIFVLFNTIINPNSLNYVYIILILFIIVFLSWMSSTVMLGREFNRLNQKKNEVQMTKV
The assay is described as follows: competition with […]-ATP uptake in NTT-expressing E. coli. The format is cell-based. As to conditions: 50,000x excess unlabelled competitor; PBS.

The subject of assay [2] is AncNTTMic. As to conditions: read-out: apparent Km; PBS; 32P-labelled ATP plus unlabelled ATP; labelled compound.
The test system of assay [3] is AncNTTRoz/Mic. The conditions noted are these: read-out: apparent Km; PBS; 32P-labelled ATP plus unlabelled ATP; labelled compound.
Assay [4] has as its target T2, EcNTT1 (Encephalitozoon cuniculi, UniProt Q8SRA2).
T2 construct: gene NTT1; full-length, N-terminal His10 tag, pET16b, in E. coli Rosetta2 DE3 pLysS cells
T2 sequence (Q8SRA2 1-559): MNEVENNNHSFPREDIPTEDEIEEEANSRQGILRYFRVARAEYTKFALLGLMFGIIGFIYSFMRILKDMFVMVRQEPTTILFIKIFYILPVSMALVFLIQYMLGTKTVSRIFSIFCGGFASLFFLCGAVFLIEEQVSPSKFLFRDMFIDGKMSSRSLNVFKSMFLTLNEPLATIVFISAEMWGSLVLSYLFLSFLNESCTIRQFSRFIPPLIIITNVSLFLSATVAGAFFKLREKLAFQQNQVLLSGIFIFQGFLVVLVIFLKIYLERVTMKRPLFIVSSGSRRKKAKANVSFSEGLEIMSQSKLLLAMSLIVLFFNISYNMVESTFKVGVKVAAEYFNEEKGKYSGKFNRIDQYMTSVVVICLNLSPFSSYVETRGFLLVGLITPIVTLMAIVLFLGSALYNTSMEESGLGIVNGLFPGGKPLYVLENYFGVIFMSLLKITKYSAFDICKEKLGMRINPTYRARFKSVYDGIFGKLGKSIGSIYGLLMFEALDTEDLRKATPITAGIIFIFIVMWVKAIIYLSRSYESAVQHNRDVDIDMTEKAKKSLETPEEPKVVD
The assay is described as follows: […]-nucleotide uptake by NTT-expressing E. coli, […] min. The assay is classed as cell-based. The conditions noted are these: PBS; labelled compound.

In the case of `Nc1ncnc2c1ncn2[C@@H]1O[C@H](COP(=O)(O)OP(=O)(O)O)[C@@H](O)[C@H]1O` [ADP], the “residual [32P]-ATP uptake” value in assay [1] is “transport by R. allomycis RaNTT1 was strongly reduced only by cold ATP and ADP”.

As usually defined, the Km is the concentration of substrate that gives half-maximal velocity. For `Nc1ncnc2c1ncn2[C@@H]1O[C@H](COP(=O)(O)OP(=O)(O)OP(=O)(O)O)[C@@H](O)[C@H]1O` [ATP], the results for the Km in assay [2] and in assay [3] were 1900 ± 1350 nM and 800 ± 150 nM, respectively.

With `Nc1nc2c(ncn2[C@@H]2O[C@H](COP(=O)(O)OP(=O)(O)OP(=O)(O)O)[C@@H](O)[C@H]2O)c(=O)[nH]1` [GTP], the “[32P]-nucleotide uptake by NTT-expressing E. coli, 30 min” value in assay [4] was “GTP is transported at high levels for all of the Microsporidia NTTs”.
